pIC50: −log10 of the molar value.
Key:
Cytochrome P450 2C9 = Cytochrome P450 2C9 (Homo sapiens, UniProt P11712); assay: Inhibition of CYP2C9; format: ADME
[1] = target: Ribosomal protein S6 kinase beta-1 (Homo sapiens, UniProt P23443); assay: Inhibition of P70S6K
[2] = target: Mitogen-activated protein kinase kinase kinase 9 (Homo sapiens, UniProt P80192); assay: Inhibition of MLK1
Cynomolgus monkey [3] = assay: Dose normalized AUC in cynomolgus monkey at 3 mg/kg, po; format: ADME, organism-based, Macaca fascicularis; parameters: dose 3 mg/kg, route oral; settings: in vivo
Rattus norvegicus [4] = assay: Dose normalized AUC in CD rat at 5 mg/kg, po; format: ADME, organism-based; parameters: dose 5 mg/kg, route oral; settings: in vivo
Mus musculus [5] = assay: Dose normalized AUC in athymic nude mouse at 10 mg/kg, iv; format: ADME, organism-based; parameters: dose 10 mg/kg, route intravenous; settings: in vivo
[6] = Cmax in Beagle dog at 3 mg/kg, iv; format: ADME, organism-based, Canis lupus familiaris; parameters: dose 3 mg/kg, route intravenous; settings: in vivo
[7] = Oral bioavailability in cynomolgus monkey at 3 mg/kg; format: ADME, organism-based, Macaca fascicularis; settings: in vivo
[8] = Oral bioavailability in athymic nude mouse at 10 mg/kg; format: ADME, organism-based; settings: in vivo
[9] = Half life in athymic nude mouse at 10 mg/kg, po; format: ADME, organism-based; parameters: dose 10 mg/kg, route oral; settings: in vivo
Cynomolgus monkey [10] = assay: Volume of distribution in cynomolgus monkey at 3 mg/kg, po and iv; format: ADME, organism-based, Macaca fascicularis; parameters: dose 3 mg/kg, route oral; settings: in vivo
Rattus norvegicus [11] = assay: Volume of distribution in CD rat at 5 mg/kg, po and iv; format: ADME, organism-based; parameters: dose 5 mg/kg, route oral; settings: in vivo
Mus musculus [12] = assay: Volume of distribution in athymic nude mouse at 10 mg/kg, po and iv; format: ADME, organism-based; parameters: dose 10 mg/kg, route oral; settings: in vivo
[13] = Metabolic stability in mouse liver microsomes assessed as compound remaining after 30 mins; format: ADME, Microsome; settings: read-out: Stability
HEL = assay: Induction of apoptosis in HEL 92.1.7 cells xenografted in nude mouse at 300 mg/kg, po bid relative to vehicle-treated control; format: functional, Homo sapiens
[14] = Drug uptake in nude mouse xenografted with HEL 92.1.7 cells at 100 mg/kg, po after 4 hrs; format: ADME, organism-based; parameters: dose 100 mg/kg, route oral; settings: in vivo, read-out: Drug uptake
[15] = Plasma concentration in nude mouse xenografted with HEL 92.1.7 cells at 300 mg/kg, po after 4 hrs; format: ADME, organism-based; parameters: dose 300 mg/kg, route oral
[16] = target: T1, Tyrosine-protein kinase JAK3 (Homo sapiens, UniProt P52333)
T1 sequence (P52333 whole entry): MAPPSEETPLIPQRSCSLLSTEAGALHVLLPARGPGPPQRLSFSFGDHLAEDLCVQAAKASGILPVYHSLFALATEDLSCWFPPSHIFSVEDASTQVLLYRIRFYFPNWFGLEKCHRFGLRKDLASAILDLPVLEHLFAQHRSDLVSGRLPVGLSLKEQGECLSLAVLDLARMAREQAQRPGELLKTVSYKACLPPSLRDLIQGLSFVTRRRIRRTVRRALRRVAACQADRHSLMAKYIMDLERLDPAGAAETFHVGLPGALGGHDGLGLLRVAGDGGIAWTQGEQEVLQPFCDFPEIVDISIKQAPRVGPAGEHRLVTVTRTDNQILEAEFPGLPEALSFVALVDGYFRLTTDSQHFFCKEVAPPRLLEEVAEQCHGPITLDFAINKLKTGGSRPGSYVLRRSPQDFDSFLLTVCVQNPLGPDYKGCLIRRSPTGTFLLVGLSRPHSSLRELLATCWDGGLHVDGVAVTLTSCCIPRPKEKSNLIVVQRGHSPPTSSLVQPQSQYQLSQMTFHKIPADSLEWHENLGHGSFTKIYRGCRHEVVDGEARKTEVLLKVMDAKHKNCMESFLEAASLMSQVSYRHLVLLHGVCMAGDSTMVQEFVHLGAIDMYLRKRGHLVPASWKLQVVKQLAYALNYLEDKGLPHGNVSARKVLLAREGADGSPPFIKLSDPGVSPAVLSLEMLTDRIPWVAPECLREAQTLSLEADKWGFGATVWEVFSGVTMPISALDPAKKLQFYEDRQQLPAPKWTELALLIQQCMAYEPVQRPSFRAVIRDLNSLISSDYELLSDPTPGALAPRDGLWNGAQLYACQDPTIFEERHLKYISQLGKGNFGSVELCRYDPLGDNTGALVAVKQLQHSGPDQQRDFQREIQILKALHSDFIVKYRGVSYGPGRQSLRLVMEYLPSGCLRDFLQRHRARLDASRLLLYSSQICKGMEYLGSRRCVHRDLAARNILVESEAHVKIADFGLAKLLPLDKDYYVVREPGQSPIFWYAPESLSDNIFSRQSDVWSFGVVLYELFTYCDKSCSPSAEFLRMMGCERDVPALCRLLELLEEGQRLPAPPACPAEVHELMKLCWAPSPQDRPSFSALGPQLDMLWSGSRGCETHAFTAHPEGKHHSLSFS

Mitogen-activated protein kinase kinase kinase 9, sequence (P80192 whole entry): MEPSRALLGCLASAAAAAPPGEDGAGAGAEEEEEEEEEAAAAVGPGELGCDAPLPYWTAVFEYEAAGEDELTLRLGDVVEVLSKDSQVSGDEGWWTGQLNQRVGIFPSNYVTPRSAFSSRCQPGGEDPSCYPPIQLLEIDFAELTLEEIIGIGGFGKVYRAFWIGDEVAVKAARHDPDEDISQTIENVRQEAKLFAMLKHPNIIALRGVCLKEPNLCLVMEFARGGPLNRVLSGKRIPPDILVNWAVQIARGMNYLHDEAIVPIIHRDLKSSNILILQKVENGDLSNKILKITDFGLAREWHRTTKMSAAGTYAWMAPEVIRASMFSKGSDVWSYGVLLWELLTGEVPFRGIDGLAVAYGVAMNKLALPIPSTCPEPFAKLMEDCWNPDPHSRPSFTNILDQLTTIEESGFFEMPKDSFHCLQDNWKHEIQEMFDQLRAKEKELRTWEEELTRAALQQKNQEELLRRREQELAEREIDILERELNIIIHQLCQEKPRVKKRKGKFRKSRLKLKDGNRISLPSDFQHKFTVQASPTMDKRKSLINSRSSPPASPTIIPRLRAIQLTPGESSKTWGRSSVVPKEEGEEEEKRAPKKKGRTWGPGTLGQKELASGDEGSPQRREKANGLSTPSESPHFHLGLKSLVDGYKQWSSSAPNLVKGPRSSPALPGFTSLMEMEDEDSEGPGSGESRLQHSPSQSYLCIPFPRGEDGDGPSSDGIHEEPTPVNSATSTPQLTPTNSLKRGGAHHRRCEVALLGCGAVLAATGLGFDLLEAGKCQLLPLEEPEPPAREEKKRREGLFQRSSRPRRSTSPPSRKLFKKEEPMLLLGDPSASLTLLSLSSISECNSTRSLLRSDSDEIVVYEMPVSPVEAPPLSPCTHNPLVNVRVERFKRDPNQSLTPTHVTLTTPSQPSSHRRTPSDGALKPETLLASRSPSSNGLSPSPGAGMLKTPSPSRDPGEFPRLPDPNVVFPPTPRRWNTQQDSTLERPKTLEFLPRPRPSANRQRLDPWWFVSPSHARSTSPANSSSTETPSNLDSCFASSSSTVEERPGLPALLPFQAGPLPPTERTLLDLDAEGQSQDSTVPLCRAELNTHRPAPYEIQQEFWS
Cytochrome P450 2C9, sequence (P11712 whole entry): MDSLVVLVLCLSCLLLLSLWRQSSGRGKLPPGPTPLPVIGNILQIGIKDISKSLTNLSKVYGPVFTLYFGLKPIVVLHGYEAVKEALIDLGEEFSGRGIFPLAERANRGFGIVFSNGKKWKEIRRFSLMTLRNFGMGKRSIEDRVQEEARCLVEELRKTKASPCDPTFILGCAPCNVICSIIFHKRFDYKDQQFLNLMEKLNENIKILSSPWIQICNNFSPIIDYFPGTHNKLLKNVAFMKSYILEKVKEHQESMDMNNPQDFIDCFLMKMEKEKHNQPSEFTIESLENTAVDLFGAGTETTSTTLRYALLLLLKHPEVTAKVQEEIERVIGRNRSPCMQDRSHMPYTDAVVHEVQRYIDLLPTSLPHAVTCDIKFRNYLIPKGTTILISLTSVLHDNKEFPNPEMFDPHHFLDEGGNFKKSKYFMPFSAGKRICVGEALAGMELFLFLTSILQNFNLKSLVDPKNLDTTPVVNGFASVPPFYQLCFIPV
Ribosomal protein S6 kinase beta-1, sequence (P23443 whole entry): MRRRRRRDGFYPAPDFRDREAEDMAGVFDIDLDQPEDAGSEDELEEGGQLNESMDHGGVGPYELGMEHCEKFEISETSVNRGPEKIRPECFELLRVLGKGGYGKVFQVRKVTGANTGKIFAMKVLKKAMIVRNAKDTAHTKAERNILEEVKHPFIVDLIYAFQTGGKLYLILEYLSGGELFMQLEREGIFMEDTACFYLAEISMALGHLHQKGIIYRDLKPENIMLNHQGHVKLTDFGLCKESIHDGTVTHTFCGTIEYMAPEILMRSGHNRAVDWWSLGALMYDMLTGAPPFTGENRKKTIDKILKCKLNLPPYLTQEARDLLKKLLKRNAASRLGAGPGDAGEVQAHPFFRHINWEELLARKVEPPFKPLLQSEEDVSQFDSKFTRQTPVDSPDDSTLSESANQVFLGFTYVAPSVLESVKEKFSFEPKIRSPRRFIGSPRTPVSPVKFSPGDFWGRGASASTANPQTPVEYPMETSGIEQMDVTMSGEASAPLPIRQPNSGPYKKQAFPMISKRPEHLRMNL

- INH (Cytochrome P450 2C9): >= 20 uM
- pIC50 [1]: 6.50
- pIC50 [2]: 6.43
- AUC/dose (Cynomolgus monkey [3]): 1.2 µM·kg·h/mg
- AUC/dose (Rattus norvegicus [4]): 8.54 µM·kg·h/mg
- AUC/dose (Mus musculus [5]): 0.42 µM·kg·h/mg
- Cmax [6]: 0.44 µM
- bioavailability [7]: 68.6%
- bioavailability [8]: 54.5%
- half-life [9]: 1.94 h
- Vd (Cynomolgus monkey [10]): 6.739 L/kg
- Vd (Rattus norvegicus [11]): 0.666 L/kg
- Vd (Mus musculus [12]): 5.319 L/kg
- remaining at 0.5 h [13]: 62%
- concentration at 4 h [14]: 240 µM
- concentration at 4 h [15]: 20.2 µM
- pIC50 [16]: 6.67
Structure (SMILES): O=C(Nc1ccc(-c2ccnc(Nc3ccc(N4CCOCC4)cc3)n2)cc1)[C@H]1CCCN1
- fold change (FC) (HEL): 11.3

— ChEMBL document CHEMBL2203210, “SAR and in vivo evaluation of 4-aryl-2-aminoalkylpyrimidines as potent and selective Janus kinase 2 (JAK2) inhibitors” (Bioorg Med Chem Lett, 2012)
